Measurements reported in patent US20230272012A1, “PEPTIDES AND METHODS OF USE” (REALTA LIFE SCIENCES, INC., priority 2020, published 2023).
Entries after “also recorded” stand apart in the source; their conditions may differ. Bridge positions count the residues as written; N and C are the ends. Square brackets hold non-standard residues; d marks the D form. Ends that are not written are not given here. S5 = C=CCCC[C@](C)(N)C(=O)O; Sar = CNCC(=O)O

What was measured:
Assay type in all cases: cell-based
[1] = test system: human umbilical endothelial vein cells (HUVECs); assay: LPS-induced (non-VEGF mediated) angiogenesis in HUVECs; settings: peptides 10 mg/ml, LPS 10 ug/ml, overnight
Description: HUVEC cells were incubated with the indicated PIC1 peptides followed by LPS addition and plating onto extracellular matrix. After overnight incubation, evidence of angiogenesis was determined by fluorescence microscopy. Cells receiving LPS and not receiving LPS served as positive and negative controls for angiogenesis.
While VEGF-plays a major role in angiogenesis in cancer, other non-VEGF factors can induce angiogenesis to promote tumor growth. Currently there are no drugs on the market to inhibit non-VEGF mediated angiogenesis. To assess whether the PIC1 peptides could inhibit non-VEGF mediated angiogenesis, the inventors developed a model of angiogenesis using human umbilical endothelial vein cells (HUVECs) in which addition of lipopolysaccharide (LPS) induces angiogenesis. HUVECs were first incubated with Cell Trace Violet dye, followed by addition of PIC1 peptides (10 mg/ml) for 1 hour at 37° C. and then treated with 10 ug/ml of LPS and placement on an extracellular matrix to promote angiogenesis. Cells were incubated overnight at 37° C. in a humidified CO2 incubator. Cells were then visualized for tube formation indicative of angiogenesis by fluorescence microscopy.

CTLA-4 = biological target: T1, CTLA-4 (Homo sapiens, UniProt P16410); assay: CTLA-4 Blockade Bioassay (Promega); parameters: host or cells: Jurkat T cells (CTLA-4 effector cells); aAPC/Raji cells; settings: increasing concentrations
T1 sequence (P16410 36-223): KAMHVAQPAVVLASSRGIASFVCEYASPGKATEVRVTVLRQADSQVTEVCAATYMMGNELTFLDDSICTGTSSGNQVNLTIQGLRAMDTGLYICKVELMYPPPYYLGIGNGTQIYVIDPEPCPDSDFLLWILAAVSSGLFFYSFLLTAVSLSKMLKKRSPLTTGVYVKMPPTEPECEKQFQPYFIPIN
Description: CTLA-4 effector cells were incubated with aAPC/Raji Cells in the absence or presence of increasing concentrations of anti-CTLA-4 antibody (positive control), RLS-0127*, RLS-0130, RLS-0156, RLS-0170 and RLS-0174. Luminescence was detected in luminometer plate reader.
To assess if PIC1 peptides could block CTLA-4 inhibitory activity in a cell-based assay, select peptides were screened in the CTLA-4 Blockade Bioassay (Promega). This bioluminescent cell-based assay is used to measure the potency and stability of molecules targeting CTLA-4 and consists of two genetically engineered cell lines: CTLA-4 effector cells: Jurkat T cells expressing human CTLA-4 and a luciferase reporter driven by a native promoter which responds to TCR/CD28 activation and aAPC/Raji Cells: Raji cells expressing an engineered cell surface protein designed to activate cognate TCRs in an antigen-independent manner and endogenously expressing CTLA-4 ligands CD80 and CD86. When the two cell types are co-cultured, CTLA-4 competes with CD28 for their shared ligands, CD80 and CD86 and thus inhibits CD28 pathway activation and promoter-mediated luminescence. Addition of a molecule that blocks the interaction of CTLA-4 with its ligands CD80 and CD86 results in promoter-mediated luminescence.

PD-1/PD-L1 interaction = biological target: T2, PD-1/PD-L1 interaction (Homo sapiens, UniProt Q15116+Q9NZQ7); assay: PD-1/PD-L1 Blockade Bioassay (Promega); settings: increasing peptide concentrations; listed as RLS-0118
T2 construct: host or cells: PD-1 effector cells; PD-L1 aAPC/CHO-K1 cells
T2 sequence (Q15116 25-288): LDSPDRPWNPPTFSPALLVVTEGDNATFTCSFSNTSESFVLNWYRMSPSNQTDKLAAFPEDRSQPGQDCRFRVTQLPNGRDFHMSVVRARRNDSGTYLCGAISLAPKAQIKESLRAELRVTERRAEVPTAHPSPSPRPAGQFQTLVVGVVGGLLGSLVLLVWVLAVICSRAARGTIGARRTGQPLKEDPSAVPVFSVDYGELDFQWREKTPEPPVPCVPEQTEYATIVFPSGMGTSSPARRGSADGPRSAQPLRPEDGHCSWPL
T2 sequence (Q9NZQ7 19-290): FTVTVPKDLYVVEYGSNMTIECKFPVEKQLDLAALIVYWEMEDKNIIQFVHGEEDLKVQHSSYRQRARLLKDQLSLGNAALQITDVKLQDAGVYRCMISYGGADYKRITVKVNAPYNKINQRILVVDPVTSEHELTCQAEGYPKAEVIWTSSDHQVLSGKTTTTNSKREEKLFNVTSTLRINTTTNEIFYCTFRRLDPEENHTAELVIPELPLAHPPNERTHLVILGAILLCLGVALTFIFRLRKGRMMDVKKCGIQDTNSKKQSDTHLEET
Description: PD-1 effector cells were incubated with PD1-L1 aAPC cells in the absence or presence of increasing concentrations of anti-PD-1 antibody (positive control) and select PIC1 peptides. Luminescence was detected in luminometer plate reader.
To assess if PIC1 peptides could block PD-1 inhibitory activity in a cell-based assay, select peptides were screened in the PD-1/PD-L1 Blockade Bioassay (Promega). The PD-1/PD-L1 Blockade Bioassay is a biologically relevant MOA-based assay that can be used to measure the potency and stability of antibodies and other biologics designed to block the PD-1/PD-L1 interaction. This bioluminescent cell-based assay is used to measure the potency and stability of molecules targeting PD-1 and consists of two genetically engineered cell lines: aAPC/CHO-K1 Cells are CHO-K1 cells with an engineered cell surface protein designed to activate cognate TCRs in an antigen-independent manner. When the two cell types are co-cultured, the PD-1/PD-L1 interaction inhibits TCR signaling and NFAT-mediated luciferase activity. Addition of an inhibitory molecule that blocks either PD-1 or PD-L1 releases the inhibitory signal and results in TCR signaling and NFAT-mediated luciferase activity.

[2] = test system: purified human Pan T-cells; assay: T-cell exhaustion protocol (Dynabeads re-stimulation); settings: peptides 2 mg/ml at each stimulation; supernatant ELISA
Description: Purified human pan-T-cells were subject to stimulation with Dynabeads every 48 hours over the period of 8 days with cells also receiving PIC1 peptides (2 mg/ml) at each stimulation. Cells not receiving Dynabeads were run in parallel to assess background levels of Caspase 3/7 signal. At the eighth day, cells were harvested and the levels of Caspase 3/7 determined by ELISA.
Purified human pan-T-cells were subject to stimulation with Dynabeads every 48 hours over the period of 8 days with cells also receiving PIC1 peptides (2 mg/ml) at each stimulation. Cell supernatants were collected at each stimulation and levels of IL-2 and IFN-gamma assayed by ELISA.
T-cell exhaustion is a form of T-cell dysfunction that occurs in cancer. It is defined by poor effector function, reduction in cytokine release (e.g., IL-2, TNF-alpha, IFN-gamma), sustained expression of inhibitory receptors (e.g., PD-1, LAG-3, CD244, CD160) with the progressive loss of effector function due to overstimulation. Exhaustion prevents optimal control of tumor growth. Exhausted T cells are prevalent in the tumor microenvironment (TME) and can lead to T-cell apoptosis. T-cell exhaustion is reversible, and pharmaceutical inhibition of T-cell exhaustion has been considered a promising strategy by many cancer researchers. To ascertain if PIC1 peptides could reverse T-cell exhaustion and increase T cell viability and effector function, a T-cell exhaustion protocol was developed. To induce T-cell exhaustion, purified human Pan T-cells were stimulated with T-Activator CD3/CD28 Dynabeads and cells are washed and re-stimulated every 48 hours. PIC1 peptides were added to the cells after each stimulation with Dynabeads. After three to four stimulations cells were harvested for readouts which consisted of assessing T-cell apoptosis by measuring Caspase 3/7 levels and production of cytokines IL-2 and IFN-gamma which is indicative of T-cell functionality. […] To further evaluate if PIC1 peptides could restore T-cell functionality in cells that have undergone the exhaustion protocol, the inventors next assessed production of cytokines IL-2 and IFN-gamma. Supernatants from the cells after each stimulation were collected and the cytokines measured by ELISA. […] The lower level of IFN-gamma signal compared to IL-2 was consistently seen in this assay.

IALILEP(Sar)S5CQES5AA (IALILEP[Sar][S5]CQE[S5]AA; staple 9-13) [PA-0118]
inhibition of LPS-induced angiogenesis (tube formation) [1]: no signs of angiogenesis
inhibitory activity in CTLA-4 blockade bioassay (luminescence) (CTLA-4): did not
inhibition of PD-1/PD-L1 inhibitory signaling (luminescence) (PD-1/PD-L1 interaction): increase in luminescence indicative of inhibition of PD-1/PD-L1 inhibitory signaling; also recorded: able to inhibit PD-1/PD-L1 mediated cell signaling
IL-2 signal at stimulation 2 [2]: did not
